{
  "source": "paper PMC11647725",
  "about": "“Discovery of 4-(5-Membered)Heteroarylether-6-methylpicolinamide Negative Allosteric Modulators of Metabotropic Glutamate Receptor Subtype 5” (ACS Medicinal Chemistry Letters, 2024)",
  "key": {"[1]": {"biological_target": "T1, human mGlu5 (Homo sapiens, UniProt P41594)", "T1 construct": "expressed in transfected cells", "T1 sequence (P41594 21-1212)": "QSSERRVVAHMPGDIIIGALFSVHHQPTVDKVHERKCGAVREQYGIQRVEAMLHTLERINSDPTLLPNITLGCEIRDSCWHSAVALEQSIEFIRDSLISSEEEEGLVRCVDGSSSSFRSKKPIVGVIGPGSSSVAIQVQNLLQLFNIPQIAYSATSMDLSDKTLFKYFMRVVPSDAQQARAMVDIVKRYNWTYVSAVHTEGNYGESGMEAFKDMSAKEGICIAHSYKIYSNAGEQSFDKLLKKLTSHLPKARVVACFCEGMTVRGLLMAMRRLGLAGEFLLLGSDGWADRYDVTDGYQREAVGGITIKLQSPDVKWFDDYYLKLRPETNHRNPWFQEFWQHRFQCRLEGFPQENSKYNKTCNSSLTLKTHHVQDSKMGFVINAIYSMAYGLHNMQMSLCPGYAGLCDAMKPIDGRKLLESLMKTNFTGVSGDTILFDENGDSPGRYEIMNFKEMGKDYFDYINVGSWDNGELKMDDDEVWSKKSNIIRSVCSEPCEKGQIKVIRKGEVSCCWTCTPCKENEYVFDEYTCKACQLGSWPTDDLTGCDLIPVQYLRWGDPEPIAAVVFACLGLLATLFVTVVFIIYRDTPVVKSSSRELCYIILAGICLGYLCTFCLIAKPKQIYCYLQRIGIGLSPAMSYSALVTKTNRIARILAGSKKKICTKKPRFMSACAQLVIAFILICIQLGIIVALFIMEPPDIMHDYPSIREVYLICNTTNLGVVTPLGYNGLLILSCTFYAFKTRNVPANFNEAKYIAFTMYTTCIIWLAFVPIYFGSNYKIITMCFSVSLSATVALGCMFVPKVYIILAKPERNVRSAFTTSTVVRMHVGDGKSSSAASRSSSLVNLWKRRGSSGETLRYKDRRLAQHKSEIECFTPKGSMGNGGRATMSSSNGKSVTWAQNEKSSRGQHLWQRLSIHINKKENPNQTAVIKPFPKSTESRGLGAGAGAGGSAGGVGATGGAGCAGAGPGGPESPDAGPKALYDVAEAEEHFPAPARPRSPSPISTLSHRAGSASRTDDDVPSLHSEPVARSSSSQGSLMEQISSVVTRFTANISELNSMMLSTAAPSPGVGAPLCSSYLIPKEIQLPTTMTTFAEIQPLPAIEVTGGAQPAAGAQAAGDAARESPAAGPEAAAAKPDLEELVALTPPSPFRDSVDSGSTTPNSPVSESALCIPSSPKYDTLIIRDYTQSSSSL", "test": "Calcium mobilization assay in human mGlu5-HEK293A cells (NAM, EC80 glutamate)", "type": "cell-based"}, "[2]": {"biological_target": "T2, human mGlu1 (Homo sapiens, UniProt Q13255)", "T2 construct": "expressed in transfected cells; host or cells: TREx-293, tetracycline-inducible", "test": "mGlu selectivity, calcium mobilization assay", "type": "cell-based", "method": "(§1) the presence of 5% CO2, the dye solutions were removed and replaced with assay buffer using a microplate washer, leaving 20 μL of assay buffer in the cell plate. The compound, agonist, and cell plates were placed inside the Functional Drug Screening System (FDSS 7000 or uCell, Hamamatsu, Japan) to measure the calcium flux. Assays were run at 37 °C. A triple add protocol was used to measure Ca kinetics. Briefly, after establishment of a fluorescence baseline for 2 seconds (excitation, 480 nm; emission, 530 nm), 20 µL of test compound was added to the cells and the response was measured for 140 seconds. This was followed by the addition of 10 µL (5X) of an EC20 concentration of Glu agonist, and the response of the cells was measured for 125 seconds. A third addition occurred by adding 12 uL (5X) of an EC80 concentration of Glu agonist and the response of the cells was measured for 90 seconds. […] Calcium fluorescence was recorded as fold over basal fluorescence and raw data were normalized to the maximal response to Glu agonist (ECMax). Compound-evoked decreases in calcium response in the presence of Glu EC80 agonist were determined as inhibition activity, and potency (IC50) and maximum inhibition responses (% GluMin) of compounds were determined using a four-parameter logistical equation using GraphPad Prism (La Jolla, CA) or the Dotmatics software platform (Woburn, MA) : […]"}, "[3]": {"biological_target": "T3, human mGlu4 (Homo sapiens, UniProt Q14833)", "T3 construct": "expressed in transfected cells", "T3 sequence (Q14833 33-912)": "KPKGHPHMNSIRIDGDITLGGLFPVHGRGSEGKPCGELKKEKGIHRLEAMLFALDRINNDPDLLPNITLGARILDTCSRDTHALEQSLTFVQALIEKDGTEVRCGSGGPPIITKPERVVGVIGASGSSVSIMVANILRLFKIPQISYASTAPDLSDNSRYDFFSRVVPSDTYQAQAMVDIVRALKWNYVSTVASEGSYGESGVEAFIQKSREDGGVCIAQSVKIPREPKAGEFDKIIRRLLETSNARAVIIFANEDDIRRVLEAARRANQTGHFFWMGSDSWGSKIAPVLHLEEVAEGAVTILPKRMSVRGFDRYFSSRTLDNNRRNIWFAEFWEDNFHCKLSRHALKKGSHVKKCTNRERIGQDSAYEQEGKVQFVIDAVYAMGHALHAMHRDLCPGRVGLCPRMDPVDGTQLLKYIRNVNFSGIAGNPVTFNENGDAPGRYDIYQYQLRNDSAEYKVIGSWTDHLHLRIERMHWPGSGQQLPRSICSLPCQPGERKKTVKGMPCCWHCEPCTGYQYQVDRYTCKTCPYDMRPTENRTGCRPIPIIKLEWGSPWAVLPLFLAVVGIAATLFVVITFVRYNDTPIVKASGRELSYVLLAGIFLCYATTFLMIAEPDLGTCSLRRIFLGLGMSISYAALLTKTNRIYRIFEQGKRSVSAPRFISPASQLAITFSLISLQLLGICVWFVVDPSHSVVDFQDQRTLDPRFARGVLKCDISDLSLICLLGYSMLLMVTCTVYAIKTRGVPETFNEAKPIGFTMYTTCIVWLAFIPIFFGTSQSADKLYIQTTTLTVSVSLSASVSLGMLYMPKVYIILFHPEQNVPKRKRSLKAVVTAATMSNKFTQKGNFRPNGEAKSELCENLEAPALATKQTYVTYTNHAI", "test": "mGlu selectivity, calcium mobilization assay", "type": "cell-based", "method": "as §1"}, "[4]": {"biological_target": "T4, CYP 3A4 (Homo sapiens, UniProt P08684)", "T4 construct": "from tissue; host or cells: pooled human liver microsomes (per the earlier reading)", "T4 sequence (P08684 whole entry)": "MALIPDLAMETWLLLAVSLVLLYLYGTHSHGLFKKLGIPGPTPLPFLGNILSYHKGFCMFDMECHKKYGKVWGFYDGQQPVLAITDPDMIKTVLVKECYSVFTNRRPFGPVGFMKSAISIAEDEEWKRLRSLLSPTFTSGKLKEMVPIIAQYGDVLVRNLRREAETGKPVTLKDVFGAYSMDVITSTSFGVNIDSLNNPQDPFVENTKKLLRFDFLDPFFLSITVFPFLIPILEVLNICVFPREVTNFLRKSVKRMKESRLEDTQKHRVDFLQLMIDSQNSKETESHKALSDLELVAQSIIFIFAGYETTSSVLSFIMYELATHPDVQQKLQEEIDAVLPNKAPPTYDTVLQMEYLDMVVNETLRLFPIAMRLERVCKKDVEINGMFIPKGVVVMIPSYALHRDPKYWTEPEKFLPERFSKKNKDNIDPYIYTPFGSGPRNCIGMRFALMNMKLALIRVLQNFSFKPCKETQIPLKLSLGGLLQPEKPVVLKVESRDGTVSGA", "test": "P450 inhibition in pooled human liver microsomes", "type": "in vitro ADME", "conditions": "pooled HLM, NADPH, CYP-specific probe substrates; listed as VU6043653"}, "[5]": {"test": "In vivo rat pharmacokinetics", "set-up": "species or system Sprague–Dawley rat"}, "[6]": {"biological_target": "Leukotriene, Cysteinyl CysLT1 (Homo sapiens, UniProt Q9Y271)", "sequence (Q9Y271 whole entry)": "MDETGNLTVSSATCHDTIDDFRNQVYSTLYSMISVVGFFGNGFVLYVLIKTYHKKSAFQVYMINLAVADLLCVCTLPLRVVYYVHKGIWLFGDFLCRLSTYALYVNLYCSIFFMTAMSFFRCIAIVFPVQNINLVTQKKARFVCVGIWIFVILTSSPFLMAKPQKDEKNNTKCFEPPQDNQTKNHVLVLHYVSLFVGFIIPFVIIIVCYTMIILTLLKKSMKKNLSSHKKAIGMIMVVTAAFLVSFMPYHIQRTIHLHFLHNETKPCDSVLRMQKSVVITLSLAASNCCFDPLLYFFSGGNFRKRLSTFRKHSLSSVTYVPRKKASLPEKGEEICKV", "test": "Lead Profiling Screen, Eurofins Panlabs", "type": "binding", "conditions": "Cysteinyl CysLT1, hum, read-out: % inh at 10 μM"}, "[7]": {"biological_target": "Melatonin MT1 (Homo sapiens, UniProt P48039)", "sequence (P48039 whole entry)": "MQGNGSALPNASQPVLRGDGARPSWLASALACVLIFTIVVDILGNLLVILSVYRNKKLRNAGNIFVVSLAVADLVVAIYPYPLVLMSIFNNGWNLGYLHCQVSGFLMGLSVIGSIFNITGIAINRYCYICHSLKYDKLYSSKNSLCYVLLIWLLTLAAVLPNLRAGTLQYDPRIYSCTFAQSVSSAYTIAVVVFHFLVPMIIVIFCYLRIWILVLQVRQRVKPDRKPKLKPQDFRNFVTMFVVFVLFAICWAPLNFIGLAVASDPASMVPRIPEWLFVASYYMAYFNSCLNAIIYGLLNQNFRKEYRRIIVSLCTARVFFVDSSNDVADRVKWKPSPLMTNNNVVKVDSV", "test": "Lead Profiling Screen, Eurofins Panlabs", "type": "binding", "conditions": "Melatonin MT1, hum, read-out: % inh at 10 μM"}, "[8]": {"biological_target": "Neuropeptide Y Y1 (Homo sapiens, UniProt P25929)", "test": "Lead Profiling Screen, Eurofins Panlabs", "type": "binding", "conditions": "Neuropeptide Y Y1, hum, read-out: % inh at 10 μM"}, "[9]": {"biological_target": "Platelet Activating Factor (PAF) (Homo sapiens, UniProt P25105)", "sequence (P25105 whole entry)": "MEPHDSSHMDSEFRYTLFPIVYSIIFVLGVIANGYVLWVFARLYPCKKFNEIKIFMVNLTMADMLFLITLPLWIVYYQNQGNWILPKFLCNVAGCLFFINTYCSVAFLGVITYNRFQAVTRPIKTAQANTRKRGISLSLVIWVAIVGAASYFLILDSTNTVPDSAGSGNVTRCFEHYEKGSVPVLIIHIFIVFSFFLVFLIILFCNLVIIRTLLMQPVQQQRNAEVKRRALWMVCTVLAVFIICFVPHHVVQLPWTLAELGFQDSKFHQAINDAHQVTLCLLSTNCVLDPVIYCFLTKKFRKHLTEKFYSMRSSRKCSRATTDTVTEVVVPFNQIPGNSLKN", "test": "Lead Profiling Screen, Eurofins Panlabs", "type": "binding", "conditions": "hum, read-out: % inh at 10 μM"}, "[10]": {"tested_on": "Potassium Channel [KATP]", "test": "Lead Profiling Screen, Eurofins Panlabs", "type": "binding, hamster", "conditions": "ham"}, "[11]": {"biological_target": "Prostanoid EP4 (Homo sapiens, UniProt P35408)", "sequence (P35408 whole entry)": "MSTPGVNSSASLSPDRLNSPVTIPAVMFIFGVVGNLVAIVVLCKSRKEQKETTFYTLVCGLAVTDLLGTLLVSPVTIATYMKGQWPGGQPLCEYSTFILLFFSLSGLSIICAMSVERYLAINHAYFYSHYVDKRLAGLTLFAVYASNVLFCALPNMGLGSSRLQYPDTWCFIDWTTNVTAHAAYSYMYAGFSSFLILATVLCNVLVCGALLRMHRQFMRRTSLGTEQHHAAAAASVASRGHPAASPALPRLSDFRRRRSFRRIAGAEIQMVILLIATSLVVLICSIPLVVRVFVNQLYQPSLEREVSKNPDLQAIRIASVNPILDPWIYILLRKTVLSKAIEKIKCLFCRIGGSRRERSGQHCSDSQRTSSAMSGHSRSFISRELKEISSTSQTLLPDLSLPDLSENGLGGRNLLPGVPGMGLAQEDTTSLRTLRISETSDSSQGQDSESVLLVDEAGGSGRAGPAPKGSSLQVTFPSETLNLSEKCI", "test": "Lead Profiling Screen, Eurofins Panlabs", "type": "binding", "conditions": "Prostanoid EP4, hum, read-out: % inh at 10 μM"}, "[12]": {"biological_target": "Serotonin (5-Hydroxytryptamine) 5-HT1A (Homo sapiens, UniProt P08908)", "sequence (P08908 whole entry)": "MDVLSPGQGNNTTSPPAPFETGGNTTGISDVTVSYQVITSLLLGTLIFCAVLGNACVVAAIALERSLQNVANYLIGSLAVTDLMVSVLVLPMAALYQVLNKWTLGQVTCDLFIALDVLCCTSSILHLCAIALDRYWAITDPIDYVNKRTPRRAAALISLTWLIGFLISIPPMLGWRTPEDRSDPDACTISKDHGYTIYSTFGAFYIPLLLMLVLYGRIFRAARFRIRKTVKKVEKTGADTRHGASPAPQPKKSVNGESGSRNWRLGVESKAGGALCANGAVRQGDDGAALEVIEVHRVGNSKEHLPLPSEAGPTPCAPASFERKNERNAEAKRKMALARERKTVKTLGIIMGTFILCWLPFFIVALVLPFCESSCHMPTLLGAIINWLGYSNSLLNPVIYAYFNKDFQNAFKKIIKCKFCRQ", "test": "Lead Profiling Screen, Eurofins Panlabs", "type": "binding", "conditions": "Serotonin 5-HT1A, hum, read-out: % inh at 10 μM"}, "[13]": {"biological_target": "Serotonin (5-Hydroxytryptamine) 5-HT3 (Homo sapiens, UniProt P46098)", "sequence (P46098 24-478)": "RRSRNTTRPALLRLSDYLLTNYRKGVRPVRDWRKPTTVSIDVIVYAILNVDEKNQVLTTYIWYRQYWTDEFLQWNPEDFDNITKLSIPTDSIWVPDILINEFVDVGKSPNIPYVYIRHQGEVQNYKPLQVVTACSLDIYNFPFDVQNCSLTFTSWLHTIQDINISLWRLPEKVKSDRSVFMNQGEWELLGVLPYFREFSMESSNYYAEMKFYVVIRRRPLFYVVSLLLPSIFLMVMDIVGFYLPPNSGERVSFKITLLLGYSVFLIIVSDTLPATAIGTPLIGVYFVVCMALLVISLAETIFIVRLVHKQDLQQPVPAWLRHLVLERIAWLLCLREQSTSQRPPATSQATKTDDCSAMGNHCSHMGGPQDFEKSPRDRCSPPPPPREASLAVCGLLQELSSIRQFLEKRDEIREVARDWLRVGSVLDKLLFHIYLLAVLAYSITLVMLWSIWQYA", "test": "Lead Profiling Screen, Eurofins Panlabs", "type": "binding", "conditions": "Serotonin 5-HT3, hum, read-out: % inh at 10 μM"}, "[14]": {"tested_on": "Sodium Channel, Site 2", "test": "Lead Profiling Screen, Eurofins Panlabs", "type": "binding", "conditions": "Site 2, rat"}},
  "data": [
    {"compound": "Cc1cc(Oc2cnn(C)c2)cc(C(=O)Nc2ccc(F)cn2)n1", "note": "[22iA]", "values": [
      {"measurement": "fold increase in hmGlu5 potency", "setting": "[1]; 22fC vs 22bC, 22gA vs 22iA, 22iA vs 22hA, 22iB vs 22hB", "result": 1.6, "unit": "fold"},
      {"measurement": "% GluMin", "setting": "[1]; efficacy of the NAM to reduce an EC80 response of glutamate, human mGlu5-HEK293A cells", "result": 2, "unit": "%"},
      {"measurement": "pIC50", "setting": "[1]; human mGlu5-HEK293A cells, EC80 fixed concentration of glutamate, n = 2 in triplicate", "result": 6.49},
      {"measurement": "IC50", "setting": "[1]; human mGlu5-HEK293A cells, EC80 fixed concentration of glutamate, read-out: hmGlu5 IC50", "result": 325, "unit": "nM"},
      {"measurement": "IC50, human mGlu1", "setting": "[2]", "result": "inactive"},
      {"measurement": "IC50, human mGlu4", "setting": "[3]", "result": "inactive"},
      {"measurement": "IC50", "setting": "[4]", "result": "≥ 30000", "unit": "nM"},
      {"measurement": "CLp", "setting": "[5]; Rat (SD), IV 1.0 mg/kg", "result": 41, "unit": "mL/min/kg"},
      {"measurement": "MRT", "setting": "[5]; Rat (SD), IV 1.0 mg/kg", "result": 50.4, "unit": "min"},
      {"measurement": "Vss", "setting": "[5]; Rat (SD), IV 1.0 mg/kg", "result": 2.0, "unit": "L/kg"},
      {"measurement": "t1/2", "setting": "[5]; Rat (SD), IV 1.0 mg/kg", "result": 44.4, "unit": "min"},
      {"measurement": "AUC0-∞", "setting": "[5]; Rat (SD), PO 10.0 mg/kg", "result": 1320, "unit": "ng·h/mL"},
      {"measurement": "Cmax", "setting": "[5]; Rat (SD), PO 10.0 mg/kg", "result": 402, "unit": "ng/mL"},
      {"measurement": "Tmax", "setting": "[5]; Rat (SD), PO 10.0 mg/kg", "result": 117, "unit": "min"},
      {"measurement": "%F", "setting": "[5]; Rat (SD), PO 10.0 mg/kg, oral bioavailability", "result": 43, "unit": "%"},
      {"measurement": "half-life", "setting": "[5]; Sprague-Dawley, rat, plasma, intravenous, 1 mg/kg, rats, value as given in running text, read-out: elimination t1/2", "result": "~45", "unit": "min"},
      {"measurement": "bioavailability", "setting": "[5]; Sprague-Dawley, rat, plasma, po, 10 mg/kg", "result": 40, "unit": "%"},
      {"measurement": "inhibition at 10 µM", "setting": "[6]", "result": 7, "unit": "%"},
      {"measurement": "inhibition at 10 µM", "setting": "[7]", "result": 15, "unit": "%"},
      {"measurement": "inhibition at 10 µM", "setting": "[8]", "result": -2, "unit": "%"},
      {"measurement": "inhibition at 10 µM", "setting": "[9]", "result": 3, "unit": "%"},
      {"measurement": "% inh at 10 μM", "setting": "[10]", "result": 2, "unit": "%"},
      {"measurement": "inhibition at 10 µM", "setting": "[11]", "result": 8, "unit": "%"},
      {"measurement": "inhibition at 10 µM", "setting": "[12]", "result": 3, "unit": "%"},
      {"measurement": "inhibition at 10 µM", "setting": "[13]", "result": -6, "unit": "%"},
      {"measurement": "% inh at 10 μM", "setting": "[14]", "result": 25, "unit": "%"}
    ]}
  ]
}
